Results on five compounds are retold here after ChEMBL document CHEMBL1152288, “Characterization of thien-2-yl 1S,2R-milnacipran analogues as potent norepinephrine/serotonin transporter inhibitors for the treatment of neuropathic pain” (J Med Chem, 2008).

Data set [1] is described as follows: AUC in Sprague-Dawley rat at 30 mg/kg, po. It counts as ADME, organism-based. The arrangement: dose 30 mg/kg, route oral. The note with it: plasma.
Data set [2] addresses Sodium-dependent serotonin transporter (Homo sapiens, UniProt P31645). Kind of data set: biochemical.
Description: Displacement of [alpha,beta-3H(N)]-5-hydroxytryptamine from human cloned SERT expressed in HEK293 cells by microplate scintillation counter
The nature of data set [3]: Apparent oral clearance in Sprague-Dawley rat at 30 mg/kg, po. The arrangement: dose 30 mg/kg, route oral. It counts as ADME, organism-based. The note with it: in vivo.
The nature of data set [4]: Drug level in Sprague-Dawley rat brain at 30 mg/kg, po after 4 hrs. Format: ADME, organism-based. The arrangement: dose 30 mg/kg, route oral. The note with it: read-out: Drug uptake.
Data set [5] is described as follows: Ratio of drug level in brain to plasma in Sprague-Dawley rat at 30 mg/kg, po after 4 hrs. It counts as ADME, organism-based. The arrangement: dose 30 mg/kg, route oral.
A short description of data set [6]: Drug level in Sprague-Dawley rat brain at 30 mg/kg, po after 1 hr. Format: ADME, organism-based. The arrangement: dose 30 mg/kg, route oral. The following applies: read-out: Drug uptake.
For data set [7], the target named is Sodium-dependent serotonin transporter (Rattus norvegicus, UniProt P31652). It counts as cell-based, HEK293.
Sequence of Sodium-dependent serotonin transporter (Rattus norvegicus, UniProt P31652) (P31652 whole entry): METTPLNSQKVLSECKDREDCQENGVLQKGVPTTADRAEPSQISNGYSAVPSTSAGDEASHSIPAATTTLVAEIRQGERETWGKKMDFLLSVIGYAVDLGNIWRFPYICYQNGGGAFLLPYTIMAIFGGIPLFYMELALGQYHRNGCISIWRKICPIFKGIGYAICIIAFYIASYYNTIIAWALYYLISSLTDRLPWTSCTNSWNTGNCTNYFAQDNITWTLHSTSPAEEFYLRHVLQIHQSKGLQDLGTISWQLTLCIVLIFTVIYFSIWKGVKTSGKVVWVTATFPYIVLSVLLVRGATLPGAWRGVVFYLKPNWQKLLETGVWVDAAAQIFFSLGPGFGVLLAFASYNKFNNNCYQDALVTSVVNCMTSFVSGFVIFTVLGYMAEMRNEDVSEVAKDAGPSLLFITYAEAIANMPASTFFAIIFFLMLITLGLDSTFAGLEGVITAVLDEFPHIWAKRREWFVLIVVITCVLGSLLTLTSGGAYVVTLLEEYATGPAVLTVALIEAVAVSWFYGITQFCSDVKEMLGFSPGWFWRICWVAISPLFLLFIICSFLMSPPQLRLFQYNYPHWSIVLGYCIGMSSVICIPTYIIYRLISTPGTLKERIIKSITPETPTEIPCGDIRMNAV
In data set [8] the target is Sodium-dependent dopamine transporter (Rattus norvegicus, UniProt P23977). The data set can be described thus: biochemical.
Sequence of Sodium-dependent dopamine transporter (Rattus norvegicus, UniProt P23977) (P23977 whole entry): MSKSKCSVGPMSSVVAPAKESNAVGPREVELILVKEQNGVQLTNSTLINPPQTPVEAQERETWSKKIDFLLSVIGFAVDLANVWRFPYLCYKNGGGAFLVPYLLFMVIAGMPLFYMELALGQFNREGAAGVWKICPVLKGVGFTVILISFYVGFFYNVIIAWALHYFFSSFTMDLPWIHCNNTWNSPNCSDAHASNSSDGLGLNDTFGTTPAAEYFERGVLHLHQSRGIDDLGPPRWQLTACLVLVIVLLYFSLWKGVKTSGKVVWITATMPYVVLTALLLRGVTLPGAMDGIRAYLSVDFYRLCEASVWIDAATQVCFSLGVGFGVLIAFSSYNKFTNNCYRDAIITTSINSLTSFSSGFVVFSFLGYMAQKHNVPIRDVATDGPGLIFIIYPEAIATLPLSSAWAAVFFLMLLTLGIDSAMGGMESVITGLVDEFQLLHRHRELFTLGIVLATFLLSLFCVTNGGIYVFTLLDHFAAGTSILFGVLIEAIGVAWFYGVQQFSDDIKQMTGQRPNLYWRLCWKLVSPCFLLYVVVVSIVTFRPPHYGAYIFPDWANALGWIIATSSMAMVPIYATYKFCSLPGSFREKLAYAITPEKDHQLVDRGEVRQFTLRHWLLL
Description: Displacement of 3,4-[ring-2,5,6-3H]dihydroxyphenylethylamine from rat synaptosomal DAT expressed in HEK293 cells by microplate scintillation counter
A further data set concerns the target Transporter (Rattus norvegicus, UniProt Q63380). The data set can be described thus: biochemical.
Data set [9] concerns Rattus norvegicus. The data set can be described thus: Antinociceptive activity in CD rat assessed as reduction in number of hind paw flinching at 60 mg/kg, po by formalin test. Format: functional. The arrangement: scale not given: the % may be the effect or the level left.
Data set [10] is described as follows: Lipophilicity, log D of the compound. Format: physicochemical. The note with it: octanol/water.
Data set [11] addresses Sodium-dependent dopamine transporter (Homo sapiens, UniProt Q01959). The data set can be described thus: biochemical.
Description: Displacement of 3,4-[ring-2,5,6-3H]dihydroxyphenylethylamine from human cloned DAT expressed in HEK293 cells by microplate scintillation counter
The nature of data set [12]: Apparent elimination half life in Sprague-Dawley rat at 30 mg/kg, po. Format: ADME, organism-based. The arrangement: dose 30 mg/kg, route oral. The following applies: in vivo, read-out: beta t1/2 (converted).
A short description of data set [13]: Metabolic stability in rat liver microsomes assessed as systemic clearance at 1 uM after 15 mins by LC-MS/MS analysis. Format: ADME, Microsome.
A short description of data set [14]: Cmax in Sprague-Dawley rat at 30 mg/kg, po. The note with it: in vivo. The arrangement: dose 30 mg/kg, route oral. It counts as ADME, organism-based.
Data set [15] is described as follows: Tmax in Sprague-Dawley rat at 30 mg/kg, po. It counts as ADME, organism-based. The arrangement: dose 30 mg/kg, route oral. The note with it: in vivo.
Data set [16] is described as follows: Partition coefficient, log P of the compound. Format: physicochemical. The following applies: octanol/water.
The next data set can be described thus: in vitro. The following applies: human, Caco-2.
The nature of data set [17]: Metabolic stability in human liver microsomes assessed as systemic clearance at 1 uM after 15 mins by LC-MS/MS analysis. It counts as ADME, Microsome.
The target of data set [18] is Sodium-dependent noradrenaline transporter (Homo sapiens, UniProt P23975). The data set can be described thus: biochemical.
Sequence of Sodium-dependent noradrenaline transporter (P23975 whole entry): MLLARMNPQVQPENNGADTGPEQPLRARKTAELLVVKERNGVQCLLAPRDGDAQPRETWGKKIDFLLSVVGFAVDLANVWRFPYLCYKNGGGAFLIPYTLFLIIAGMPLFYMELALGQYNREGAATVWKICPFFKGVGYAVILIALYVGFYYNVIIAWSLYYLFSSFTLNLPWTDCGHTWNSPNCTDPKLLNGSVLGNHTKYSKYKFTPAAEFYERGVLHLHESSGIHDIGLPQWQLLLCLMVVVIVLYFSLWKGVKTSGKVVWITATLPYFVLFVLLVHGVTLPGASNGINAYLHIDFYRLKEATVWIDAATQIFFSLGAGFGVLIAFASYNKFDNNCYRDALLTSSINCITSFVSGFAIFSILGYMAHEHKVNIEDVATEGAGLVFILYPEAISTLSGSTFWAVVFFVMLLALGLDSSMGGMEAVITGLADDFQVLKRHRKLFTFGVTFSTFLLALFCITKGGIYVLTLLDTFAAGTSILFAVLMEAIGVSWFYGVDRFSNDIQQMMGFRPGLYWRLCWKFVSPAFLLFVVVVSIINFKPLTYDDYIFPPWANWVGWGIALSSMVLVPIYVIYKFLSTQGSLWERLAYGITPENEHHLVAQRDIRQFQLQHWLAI
Description: Displacement of Levo[ring-2,5,6-3H]norepinephrine from human cloned NET expressed in HEK293 cells by microplate scintillation counter
Data set [19] in a line: Ratio of drug level in brain to plasma in Sprague-Dawley rat at 30 mg/kg, po after 1 hr. Format: ADME, organism-based. The arrangement: dose 30 mg/kg, route oral.
Data set [20] has as its system Rattus norvegicus. The data set can be described thus: Antinociceptive activity in CD rat assessed as reduction in number of hind paw flinching at 30 mg/kg, po by formalin test. Format: functional, organism-based. The arrangement: dose 30 mg/kg.
For data set [21], the species on record is Rattus norvegicus. The data set can be described thus: Reversal of pin-prick-induced neuropathic mechanical hyperalgesia in Harlan Sprague-Dawley rat sciatic nerve ligation model. It counts as functional, organism-based.

Structures are written as SMILES. Active and inactive are the calls of the source. The calls are words filed in the database; no cut-off is given here. A value given as a limit tells only on which side of the number the result lay.

Sequence of Sodium-dependent dopamine transporter (Homo sapiens, UniProt Q01959) (Q01959 whole entry): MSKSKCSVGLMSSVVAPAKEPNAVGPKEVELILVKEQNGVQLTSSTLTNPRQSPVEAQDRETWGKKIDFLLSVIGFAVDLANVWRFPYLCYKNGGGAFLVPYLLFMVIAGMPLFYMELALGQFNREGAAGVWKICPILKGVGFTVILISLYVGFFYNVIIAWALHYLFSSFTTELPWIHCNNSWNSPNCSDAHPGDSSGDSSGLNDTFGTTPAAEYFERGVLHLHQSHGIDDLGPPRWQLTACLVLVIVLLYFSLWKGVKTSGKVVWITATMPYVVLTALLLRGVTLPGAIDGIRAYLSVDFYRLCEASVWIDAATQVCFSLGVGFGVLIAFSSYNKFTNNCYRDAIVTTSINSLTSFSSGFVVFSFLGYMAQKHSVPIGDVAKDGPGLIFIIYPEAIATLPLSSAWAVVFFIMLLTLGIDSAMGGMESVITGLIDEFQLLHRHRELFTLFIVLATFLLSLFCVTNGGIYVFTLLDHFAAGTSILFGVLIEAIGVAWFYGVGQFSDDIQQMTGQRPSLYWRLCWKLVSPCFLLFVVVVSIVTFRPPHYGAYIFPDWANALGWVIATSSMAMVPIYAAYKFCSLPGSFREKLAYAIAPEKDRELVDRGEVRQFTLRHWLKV
Sequence of Sodium-dependent serotonin transporter (Homo sapiens, UniProt P31645) (P31645 whole entry): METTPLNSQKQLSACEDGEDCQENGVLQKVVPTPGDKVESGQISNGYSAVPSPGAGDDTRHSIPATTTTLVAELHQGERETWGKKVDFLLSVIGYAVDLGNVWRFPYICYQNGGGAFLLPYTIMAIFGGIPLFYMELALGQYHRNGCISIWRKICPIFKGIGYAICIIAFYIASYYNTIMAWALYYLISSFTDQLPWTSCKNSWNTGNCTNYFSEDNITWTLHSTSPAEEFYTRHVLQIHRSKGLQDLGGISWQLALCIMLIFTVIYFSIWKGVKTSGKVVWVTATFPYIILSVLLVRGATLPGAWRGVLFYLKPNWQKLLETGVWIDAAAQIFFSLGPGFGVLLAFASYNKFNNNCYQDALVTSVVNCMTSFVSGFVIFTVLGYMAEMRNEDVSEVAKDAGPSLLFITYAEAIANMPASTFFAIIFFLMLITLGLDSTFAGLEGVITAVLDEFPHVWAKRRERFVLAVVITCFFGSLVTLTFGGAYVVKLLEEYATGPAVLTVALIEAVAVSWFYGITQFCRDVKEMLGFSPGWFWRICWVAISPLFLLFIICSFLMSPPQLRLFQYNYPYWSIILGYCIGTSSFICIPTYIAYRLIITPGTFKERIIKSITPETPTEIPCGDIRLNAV
Sequence of Transporter (Q63380 whole entry): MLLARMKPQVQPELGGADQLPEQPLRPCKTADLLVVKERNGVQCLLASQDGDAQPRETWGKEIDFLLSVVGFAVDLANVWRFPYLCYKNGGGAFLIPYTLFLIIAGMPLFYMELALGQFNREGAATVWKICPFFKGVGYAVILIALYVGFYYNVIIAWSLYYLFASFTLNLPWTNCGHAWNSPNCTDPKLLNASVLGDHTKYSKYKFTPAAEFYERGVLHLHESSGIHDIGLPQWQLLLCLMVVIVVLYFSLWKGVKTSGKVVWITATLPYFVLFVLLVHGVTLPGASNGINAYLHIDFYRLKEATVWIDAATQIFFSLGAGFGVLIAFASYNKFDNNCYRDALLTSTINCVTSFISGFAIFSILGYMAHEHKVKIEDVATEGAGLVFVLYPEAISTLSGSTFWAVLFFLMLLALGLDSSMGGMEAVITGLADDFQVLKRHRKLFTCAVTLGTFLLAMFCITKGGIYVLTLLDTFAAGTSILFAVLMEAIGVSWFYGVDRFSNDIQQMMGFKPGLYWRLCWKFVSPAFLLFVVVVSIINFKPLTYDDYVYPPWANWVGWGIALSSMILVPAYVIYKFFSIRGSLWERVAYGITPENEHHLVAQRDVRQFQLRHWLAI
Description for in vitro: Apparent permeability from apical to basolateral side of the human Caco-2 cells
Description for physchem: Dissociation constant, pKa of the compound

For the compound `NC[C@@H]1C[C@@]1(C(=O)N1Cc2ccccc2C1)c1cccs1`, the AUC in data set [1] is 272 ng·h/mL. The IC50 in data set [2] worked out at 13 nM; in data set [7], 25 nM; in data set [8], 2000 nM; at Transporter, 15 nM; in data set [11], 5540 nM; in [18], 21 nM. Besides, the CL/F in [3] worked out at 1840 mL/min/kg. In addition, the concentration at 4 h in data set [4] came out at 24 ng/g. In data set [5], the Kp at 4 h is 1.8. Further, the concentration at 1 h in [6] is 28 ng/g. Besides, the Activity in the data set on Rattus norvegicus [9] is given as 56%. Also, the logD in data set [10] is 0.5. The half-life in data set [12] is 2.3 h. Also, the CLhep predicted at 1 µM is 64 mL/min/kg in data set [13] and 8.8 mL/min/kg in data set [17]. Moreover, the peak level in data set [14] (Cmax) was 58 ng/mL. Also, the Tmax in [15] worked out at 1.1 h. Also, in [16], the logP is 2.2. Moreover, the pKa in the data set “physchem” came to 9.5. Also, in “in vitro”, the Papp A→B worked out at 8.4 ×10⁻⁶ cm/s. Moreover, in [19], the Kp at 1 h is 1.

Compound `C[C@H]1O[C@@H](O[C@H]2[C@@H](O)C[C@H](O[C@H]3[C@@H](O)C[C@H](O[C@H]4CC[C@@]5(C)[C@H](CC[C@@H]6[C@@H]5C[C@@H](O)[C@]5(C)[C@@H](C7=CC(=O)OC7)CC[C@]65O)C4)O[C@@H]3C)O[C@@H]2C)C[C@H](O)[C@@H]1O` [DIGOXIN] came in with a Papp A→B in the data set “in vitro” of 1 ×10⁻⁶ cm/s.

On to `C=CCN(CC=C)C(=O)[C@@]1(c2cccs2)C[C@H]1CN`, for which the result with Rattus norvegicus [20] was Active. The Activity result in the data set listed under Rattus norvegicus [21] is “Dose-dependent effect”.

For `C=CCN(CC)C(=O)[C@@]1(c2cccs2)C[C@H]1CN`, the figures for the IC50 in data set [2], in data set [11] and in data set [18] were 140 nM, more than 10000 nM and 15 nM, respectively. For the same compound, the CLhep predicted at 1 µM is 62 mL/min/kg in [13] and 11 mL/min/kg in data set [17]. In the data set “in vitro”, this compound registered a Papp A→B of 13.7 ×10⁻⁶ cm/s.

Take `C=CCN(CC)C(=O)[C@@]1(c2ccsc2)C[C@H]1CN`: the IC50 in [7] was 27 nM; in data set [8], more than 10000 nM; against Transporter, 6.4 nM. In the data set with Rattus norvegicus [9], the Activity is listed as 56%.
